Measured values: patent US20080095737A1, “NON-TOXIC COATING COMPOSITION, METHODS OF USE THEREOF AND ARTICLES PROTECTED FROM ATTACHMENT OF BIOFOULING ORGANISMS” (Symrise GmbH & Co. KG, priority 2000, published 2008)
≈ marks a conversion by molar mass, not a printed value. Where “and” joins values, the source holds several entries; their conditions need not be identical. Equal entries are not always repeated. Where two headings read alike, the source gives them in different places.

Assays:
[1] = system: cyprid larvae of the barnacle, Balanus amphitrite Darwin; assay: Barnacle settlement inhibition assay; type: in vivo; settings: for EC50: Amphibalanus amphitrite, read-out: EC50 (concentration which inhibited the settlement of 50% of the cyprid stage larvae); for efficacy as antifouling agents: in words
Description: Mary's College in Tuticorin, India. The barnacles were crushed and the nauplius stage larvae were collected for culture to the cyprid stage following the method of Rittschof et al., J. Exp. Mar. Biol. Ecol., 82:131146 (1984). The cyprid is the stage at which the barnacle larva is competent to attach to surfaces. Upon attachment to a surface, the larva then undergoes metamorphosis into a barnacle. Barnacle settlement assays were undertaken using the method described previously by Rittschof et al., J. Chem. […] Briefly, Falcon 50×9 mm plastic petri dishes were filled with 5 ml of filtered seawater at salinity of 33-35 parts per thousand (ppt) and into which 3-day old cyprid stage larvae were added. The test compounds were introduced at various concentrations into the dishes containing seawater. The test compounds included (-)menthol and (-)[…]-3,8-diol. Controls were represented by those dishes in which no test compound were added. After incubation at 28° C. for 9 hours, the dishes were examined under a dissecting microscope to determine if there was any mortality. […] Settlement data were expressed as the percentage of the larvae attached to the bottom of the dish. The same settlement assay was used to determine the effective concentration of a number of different compounds of formula I, above. The effective concentration (EC50) is that concentration which inhibited the settlement of fifty percent (50%) of the cyprid stage of the barnacle larvae present in a test sample.

Aeromonas sp. (Ael) = assay: Agar diffusion assay, marine bacteria associated with B. amphitrite; type: cell-based; settings: 0.004 mg/ml loaded on 6.5 mm disks
Flavobacterium sp. (F) = assay: as above; type: cell-based; settings: 0.004 mg/ml loaded on 6.5 mm disks
[2] = system: other bacterial strains associated with B. amphitrite; assay: as above; type: cell-based; settings: 0.004 mg/ml loaded on 6.5 mm disks
Vibrio sp. (V, & V,) = assay: Agar diffusion assay, marine bacteria associated with Perna sp; type: cell-based; settings: procedure as Example 2
Dunaliella tertiolecta = assay: In vitro cell growth inhibition assay, marine unicellular algae; type: cell-based; settings: 0.00001-1.0 mg/ml, cell counts at 24-hour intervals
Procedure: (§1) The in vitro cell growth inhibition assay used in this test is described in […], et al., J. Chem. Ecol., supra. Dunaliella tertiolecta is a marine micro algae cultured in the laboratory. Each test algae was inoculated from stock culture into flasks containing growth medium. (-)-menthol was added to the flask at various concentrations and the growth was monitored on each flask using a haemocytometer at 24-hour intervals up to the death phase of the culture.

Nitzchia sp. = assay: In vitro cell growth inhibition assay, Nitzchia sp; type: cell-based; settings: 0.00001-1.0 mg/ml, compared to the control
Procedure: as §1, with “culture. The test procedure employed was substantially the same as described in Example 4, except that Nitzchia sp. was substituted for D. tertiolecta.” for “culture.”

fouling phytoplanktons = assay: Attachment of fouling phytoplanktons on painted submerged cement structures (seawater raceway); design: key: +++++: highest amount of fouling attachments; −: no appreciable fouling attachments; settings: 5% by weight in paint on cement structure, 60 days in seawater raceway
Procedure: A raceway measuring 100 feet long, 15 feet wide and 3 feet deep was constructed near the sea and lined with a plastic liner. Seawater was pumped directly from the sea and the Growth of naturally occurring plankton was induced by fertilization of the seawater. The total volume of the seawater was approximately 150 cubic meters. The water was circulated and aerated using a paddlewheel. Samples of the seawater were analyzed after 30 days and found to contain the following species of diatoms: Grammatophoria ocean ica, Nitzschia sp., A,inphora sp., Amphora bigilba, Thalassiothrix sp., Stauroneis sp., Licniophora sp., and Navicula sp. The seawater also contained the dinoflagellate, Peridhan sp., and the blue Green algae, Ocillatoria sp. and Rivularia sp.
A conventional paint formulation that was free of any tributyl tin compounds was used as a control. Paint formulations embodying the present invention were prepared by incorporating (−)-menthol and (−)-(trans)-p-menthan-3,8-diol at a dose concentration of 5 percent (5%) by weight of each compound into the same paint vehicle used for the control formulation, and these two formulations were painted on separate surfaces of cement structures placed in the raceway. The controls consisted of unpainted cement surface and surface painted with the control formulation. […]

[3] = system: barnacle, Balanus amphitrite communis; assay: Painted iron panels submerged in the sea, barnacle attachment; settings: cuprous oxide-containing marine paint on iron panels, submerged 78 weeks; control paint = 100
Procedure: A floating platform was constructed using layers of bamboo and styrofoam floats. The platform was designed with holders to accommodate test panels measuring 4 inches×12 inches×0.25 inches.
A first experimental paint was prepared, containing a biocidally effective amount of cuprous oxide and no other biocide which was used as the control. To this composition was added a combination of 0.5%, by weight of (−)-trans-pmenthan-3,8-diol and 0.50 of (−)-menthol (Composition A). A second paint composition was prepared from the same marine paint vehicle containing cuprous oxide, to which was added 2% by weight of (−)-menthol (Composition B). A third formulation was made from the same cuprous oxide-containing marine paint vehicle, to which was added 2% by weight of (−)-trans-p-menthan-3,8-diol (Composition C).
Solid iron panels having the above-mentioned dimensions were painted with the paint formulations thus prepared, placed in the holders in the floating platform and submerged continuously near the center of Bitac Cove in San Dionisio Bay (Philippines) for a period of 78 weeks. The panels were examined for a few minutes every three months and immediately resubmerged after photography. After 78 weeks, the panels were removed and inspected. The numbers of barnacles attached to the panels were counted. […]

[4] = system: nauplii of the barnacle, Balauus annphitrite Darwin; assay: Mortality of barnacle nauplii at the effective concentrations; settings: prolonged exposure at the compound's EC50 concentration
[5] = system: other bacterial strains associated with Perna sp; assay: Agar diffusion assay, marine bacteria associated with Perna sp; settings: procedure as Example 2
[6] = system: barnacle, Balanus amphitrite Darwin; settings: cited from earlier work
[7] = settlement assay, cyprid larvae

C=C(C)C1CCC(C)CC1O (single isomer, unassigned; (-)) [(−)-isopulegol, 5-methyl-2-(1-methylethenyl)cyclohexanol]
EC50 [1, 7]: 0.088 mg/L (≈ 0.57 µM) | efficacy as antifouling agents ([1]; settlement assay): superior efficacy

CC1CCC(C(C)C)C(O)C1 (single isomer, unassigned; (-)) [(−)-menthol]
EC50 [1]: 4 mg/L (≈ 25.6 µM) | settlement (percentage of the larvae attached to the bottom of the dish) ([1]; each of five concentrations tested (concentrations not given), in order, last = highest, 9 hours at 28° C., control 59% (diol) / 58% (menthol)): 39% and 34% and 26% and 23% and 21% | zone of inhibition, radius (Aeromonas sp. (Ael)): greater than 10 mm | zone of inhibition, radius (Flavobacterium sp. (F)): greater than 10 mm | sensitivity of bacterial strains [2]: moderately sensitive | zone of inhibition, radius (Vibrio sp. (V, & V,)): greater than 8.5 mm | inhibition of growth (Dunaliella tertiolecta): effective in inhibiting the growth of this micro algae in a dose dependent manner | inhibition of growth rate (Nitzchia sp.): effective at all of the concentrations tested in inhibiting the growth rate | DEGREE OF BIOFOULING (fouling phytoplanktons): − | % Settlement [3]: 16.1% | mortality of barnacle nauplii [4]: did not show any mortality | sensitivity of bacterial strains [5]: moderately sensitive

CC1CCC(C(C)C)C(=O)C1 (single isomer, unassigned; (-)) [(−)-menthone]
EC50 [1]: 1 mg/L (≈ 6.48 µM) | mortality of barnacle nauplii [4]: did not show any mortality

CC1CCC(C(C)C)C(Cl)C1 (single isomer, unassigned; (-)) [(−)-menthyl chloride]
EC50 [1]: 0.1 mg/L | mortality of barnacle nauplii [4]: did not show any mortality

CC1CCC(C(C)(C)O)C(O)C1 (single isomer, unassigned; (-)) [(−)-trans-p-menthan-3,8-diol]
EC50 [1]: 1 mg/L (≈ 5.8 µM) | DEGREE OF BIOFOULING (fouling phytoplanktons): − | % Settlement [3]: 27.1% | mortality of barnacle nauplii [4]: did not show any mortality

CCC[CH2][Sn]([Cl])([CH2]CCC)[CH2]CCC [TBT chloride]
acute toxicity, estimated dose [6]: ~3.4 μg (microgram) per liter | acute toxicity, estimated dose ([6]; same value restated): ~0.0000034 grams/liter

CC1CCC(C(C)C)C(OCC(O)CO)C1 (centres unmarked) [menthoxypropanediol, 3-[[5-methyl-2-(1-methylethyl)cyclohexyl]oxy]-1,2-propanediol]
EC50 [1, 7]: 0.002 mg/L (≈ 0.00868 µM) | efficacy as antifouling agents ([1]; settlement assay): superior efficacy
